One assay is filed under the species Rattus norvegicus. The assay can be described thus: Increase in dopamine level in rat striatum by microdialysis assay (reference value: 4.2 nM). In kind it is functional.
For the next assay, the target named is D(3) dopamine receptor (Homo sapiens, UniProt P35462). The assay can be described thus: Agonist activity at dopamine D3 receptor (unknown origin).
The test system of assay [1] is Mus musculus. The assay can be described thus: Antinociceptive activity in mouse at 2 mg/kg, ip by writhing test. It counts as functional. The following applies: route intraperitoneal. (Writhing tests count abdominal constrictions after an irritant is injected.)
A further assay relates to Ileum. The assay can be described thus: Spasmolytic activity in guinea pig ileum. In kind it is functional, tissue-based. The following applies: Cavia porcellus.
The nature of assay [2]: Stimulation of dopaminergic neurons in rat posterior ventral tegmental area relative to ethanol. In kind it is functional.
Assay [3] deals with Mus musculus. The assay can be described thus: Antinociceptive activity in mouse at 3 mg/kg, ip by writhing test. It counts as functional. The following applies: route intraperitoneal.

The structures appear in SMILES notation.

The Ki is a measure of affinity in units of concentration, obtained from inhibition or displacement. A higher Ki goes with lower affinity. As usually defined, the IC50 is the concentration that inhibits the measured activity by half. The low end stands for greater potency, the high end for weaker potency.

Chain of D(3) dopamine receptor (P35462 whole entry): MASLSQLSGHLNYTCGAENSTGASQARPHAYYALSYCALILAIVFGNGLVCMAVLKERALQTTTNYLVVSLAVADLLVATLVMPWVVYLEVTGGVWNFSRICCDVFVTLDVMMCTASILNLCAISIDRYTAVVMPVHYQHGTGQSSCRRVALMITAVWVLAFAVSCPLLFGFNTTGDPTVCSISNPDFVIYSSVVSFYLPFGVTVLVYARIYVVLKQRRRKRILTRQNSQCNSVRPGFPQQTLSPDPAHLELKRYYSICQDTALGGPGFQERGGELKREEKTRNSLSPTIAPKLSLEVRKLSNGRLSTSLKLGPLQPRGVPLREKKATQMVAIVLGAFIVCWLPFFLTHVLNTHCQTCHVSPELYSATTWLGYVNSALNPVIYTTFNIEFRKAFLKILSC

`C[C@H]1NCCc2cc(O)c(O)cc21` came in with an Activity in the assay filed under Rattus norvegicus of 300 nM.

In the case of `C[C@@H]1NCCc2cc(O)c(O)cc21`, the Ki on D(3) dopamine receptor stood at 500 nM. The same molecule displayed an Activity in the assay listed under Rattus norvegicus of 21.5 nM.

In the assay on Mus musculus [1], `COc1ccc(-c2cc(=O)c3c(O)cc(O)cc3o2)cc1` [ACACETIN] came in with an Activity of 50%. In the assay with Ileum, this molecule showed an IC50 of 1100 nM.

Take `CC1NCCc2cc(O)c(O)cc21` (configuration not stated): the “fold change (FC)” value in assay [2] turned out to be 1000000.

Consider `C[C@H]1[C@H](C)CC[C@]2(C(=O)O)CC[C@]3(C)C(=CC[C@@H]4[C@@]5(C)CC[C@H](O)C(C)(C)[C@@H]5CC[C@]43C)[C@H]12` [URSOLIC ACID], for which the Activity in the assay on Mus musculus [3] is listed as 50%.
